According to US11077120B2, “Prostaglandin receptor EP2 antagonists, derivatives, compositions, and uses related thereto” (Emory University, priority 2014, dated 2021):

Experiments:
[1] = biological target: T1, human EP2 receptors (Homo sapiens, UniProt P43116); assay: cell-based cAMP TR-FRET assay, rightward shift of PGE2 concentration response curve (Schild KB), EP2; details: Table 6; read-out: EP2 KB
T1 construct: expressed in transfected cells
Method: KB value indicates the antagonist concentration required for a twofold rightward shift in the PGE2 dose-response curve. Thus, a lower KB value indicates a higher inhibitory potency.
(§1) The synthesis was carried out starting from commercially available 2-methyl indole or 2-trifluoromethyl indoles (11a-c), which on treatment with bromoacetonitrile provided intermediates (12a-c), which then were subjected to lithium aluminum hydride to reduce cyanide to amines. […] Synthesized derivatives were tested by using a cAMP-derived TR-FRET assay, at single concentration (1 μM) to observe a rightward shift of PGE2 (an EP2 agonist) concentration response curve in a C6G cell line that overexpresses human EP2 receptors.
A lower KB value indicates a higher inhibitory potency.
(§2) Intracellular cAMP was measured with a cell-based homogeneous time-resolved fluorescence resonance energy transfer (TR-FRET) method (Cisbio Bioassays). […] Endogenous cAMP produced by cells competes with labeled cAMP for binding to the cAMP antibody and thus reduces the FRET signal. Cells stably expressing human DP1, EP2, EP4, or IP receptors were seeded into 384-well plates in 30 μl complete medium (4,000 cells/well) and grown overnight. The medium was carefully withdrawn and 10 μl Hanks' Buffered Salt Solution (HBSS) (Hyclone) containing 20 μM rolipram was added into the wells to block phosphodiesterases. The cells were incubated at room temperature for 0.5-1 h and then treated with vehicle or test compound for 10 min before addition of increasing concentrations of appropriate agonist: BW245C for DP1, PGE2 for EP2 and EP4, or iloprost for IP. The cells were incubated at room temperature for 40 min, then lysed in 10 μl lysis buffer containing the FRET acceptor cAMP-d2 and 1 min later another 10 μl lysis buffer with anti-cAMP-Cryptate was added. After 60-90 min incubation at room temperature, the FRET signal was measured by an Envision 2103 Multilabel Plate Reader (PerkinElmer Life Sciences) with a laser excitation at 337 nm and dual emissions at 665 nm and 590 nm for d2 and Cryptate (50 s delay), respectively. The FRET signal was expressed as: F665/F590×10^4.

[2] = biological target: T2, human DP1 receptors (Homo sapiens, UniProt Q13258); assay: cell-based cAMP TR-FRET assay, DP1 (agonist BW245C); details: Table 6; for Kb: read-out: DP1 KB
T2 construct: expressed in transfected cells
T2 sequence (Q13258 1-359): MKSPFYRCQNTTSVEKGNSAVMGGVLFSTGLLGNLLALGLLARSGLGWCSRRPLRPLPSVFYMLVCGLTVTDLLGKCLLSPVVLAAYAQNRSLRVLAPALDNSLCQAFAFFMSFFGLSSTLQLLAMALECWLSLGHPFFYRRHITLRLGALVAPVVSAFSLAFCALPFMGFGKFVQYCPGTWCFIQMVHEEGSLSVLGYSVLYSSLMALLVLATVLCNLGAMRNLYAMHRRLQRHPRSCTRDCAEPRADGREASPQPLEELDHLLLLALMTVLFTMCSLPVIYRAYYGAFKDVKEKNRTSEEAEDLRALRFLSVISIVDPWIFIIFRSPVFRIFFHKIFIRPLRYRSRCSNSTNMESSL
Method: as §1
as §2, with “After 60-90 min incubation at room temperature, the FRET signal was measured by an Envision 2103 Multilabel Plate Reader (PerkinElmer Life Sciences) with a laser excitation at 337 nm and dual emissions at 665 nm and 590 nm for d2 and Cryptate (50 s delay), respectively.” left out

T1 sequence (P43116 whole entry): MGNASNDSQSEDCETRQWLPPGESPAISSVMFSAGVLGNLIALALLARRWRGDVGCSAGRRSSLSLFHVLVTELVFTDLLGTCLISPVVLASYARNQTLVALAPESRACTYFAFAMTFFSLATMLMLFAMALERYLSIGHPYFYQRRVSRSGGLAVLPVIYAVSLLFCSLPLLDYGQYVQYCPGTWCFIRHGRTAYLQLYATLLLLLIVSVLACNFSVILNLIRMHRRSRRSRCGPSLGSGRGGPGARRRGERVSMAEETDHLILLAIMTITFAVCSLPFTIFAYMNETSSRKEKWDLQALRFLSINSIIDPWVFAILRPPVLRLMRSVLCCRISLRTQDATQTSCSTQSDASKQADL

| Structure (SMILES) | Kb [1] | Kb [2] | DP1 KB [2] |
| --- | --- | --- | --- |
| Cc1cc2ccccc2n1CCNC(=O)c1cc(-c2ccc(F)cc2)n[nH]1 [TG7-245] | 22.7 nM | 140000 nM |  |
| Cc1cc2ccccc2n1C1CCCN(C(=O)c2ccc(N3CCOCC3)cc2)C1 (stereo not shown) [TG7-292] | 1790 nM |  | Inactive |
| Cc1cc2ccccc2n1CCNC(=O)c1ccc(N=[N+]=[N-])cc1 [TG7-297] | 89.4 nM | 1890 nM |  |
| Cc1cc2cc(Br)ccc2n1CCNC(=O)c1ccc(N2CCOCC2)cc1 [TG7-300] | 247 nM | 18900 nM |  |
| Cc1cc2ccccc2n1CCNC(=O)c1ccc(OCCO)c(OCCO)c1 [TG8-3] | 271 nM | 62900 nM |  |
| Cc1cc2ccccc2n1CCNC(=O)c1ccc(OCCO)cc1 [TG8-12] | 133 nM | 2740 nM |  |
| CCOC(=O)C1CCN(c2ccc(C(=O)NCCn3c(C(F)(F)F)cc4ccccc43)cc2)CC1 [TG8-42] | 2740 nM | 3240 nM |  |
| O=C(NCCn1c(C(F)(F)F)cc2ccccc21)c1ccc(N2CCC(C(=O)O)CC2)cc1 [TG8-46] | 413 nM | 1060 nM |  |
| O=C(NCCn1c(C(F)(F)F)cc2ccccc21)c1ccc(-c2nnn[nH]2)cc1 [TG8-47] | 1110 nM | 795 nM |  |
| C#Cc1ccc(C(=O)NCCn2c(C)cc3ccccc32)cc1 [TG8-52] | 77.5 nM | 609 nM |  |
| Cc1cc2ccccc2n1CCNC(=O)c1ccc(-c2cn(COCc3ccccc3)nn2)cc1 [TG8-54] | 164 nM | 3390 nM |  |
| Cc1cc2ccccc2n1CCNC(=O)c1ccc(-c2cn(Cc3ccccc3)nn2)cc1 [TG8-55] | 305 nM | 6960 nM |  |
| Cc1cc2ccccc2n1CCNC(=O)c1cnc(N2CCC(CO)CC2)nc1 [TG8-59] | 159 nM | 5850 nM |  |
| Cc1cc2ccccc2n1CCNC(=O)c1ccc(-n2cc(CO)nn2)cc1 [TG8-60] | 28.2 nM | 2420 nM |  |
